The record followed here is ChEMBL document CHEMBL4177563, “The medicinal chemistry of Chikungunya virus” (Bioorg Med Chem, 2017).

Data set [1] deals with Chikungunya virus. Briefly: Antiviral activity against Chikungunya virus LR2006 OPY1 infected in human MRC5 cells after 48 hrs by indirect immunofluorescence analysis. It is filed as functional, organism-based. The following applies: LR2006 OPY1, MRC5, 48 h.
The test system of data set [2] is Chikungunya virus. Briefly: Antiviral activity against Chikungunya virus KC969207 infected in African green monkey Vero cells after 48 hrs by MTT dye-based assay. It is filed as functional, organism-based. (Tetrazolium dyes change colour on reduction, which living cells bring about.)
Data set [3] relates to Chikungunya virus. Briefly: Antiviral activity against Chikungunya virus KC969208 infected in African green monkey Vero cells after 48 hrs by MTT dye-based assay. It is filed as functional, organism-based.
The nature of data set [4]: Cytotoxicity against African green monkey Vero cells assessed as reduction in cell viability after 4 days by MTT assay. It is filed as cell-based. The following applies: chlorocebus sabaeus.
Data set [5] in a line: Selectivity index, ratio of CC50 for African green monkey Vero cells to IC50 for Chikungunya virus KC969207. It is filed as toxicity. As to conditions: read-out: Ratio CC50/IC50.
The nature of data set [6]: Selectivity index, ratio of CC50 for African green monkey Vero cells to IC50 for Chikungunya virus KC969208. It is filed as toxicity. The following applies: read-out: Ratio CC50/IC50.
A short description of data set [7]: Selectivity index, ratio of CC50 for African green monkey Vero cells to IC50 for Chikungunya virus nsP2 protease. It is filed as toxicity. As to conditions: read-out: Ratio CC50/IC50.
The test system of data set [8] is Chikungunya virus. The experiment in a line: Antiviral activity against Chikungunya virus LR2006-OPY1 infected in BHK21 cells after 48 hrs by luciferase reporter gene assay. It is filed as functional, organism-based. As to conditions: LR2006-OPY1, BHK-21, 48 h. For orientation: Reporter assays use an easily measured gene product as a stand-in for the process of interest.

Data set [9] deals with Chikungunya virus. The experiment in a line: Antiviral activity against Chikungunya virus LR2006-OPY1 infected in human Huh7.5 cells after 48 hrs by luciferase reporter gene assay. As to conditions: LR2006-OPY1, Huh7.5, 48 h. It is filed as functional, organism-based.
The nature of data set [10]: Cytotoxicity against BHK21 cells in presence of ATP by Celltiter-Glo assay. The data set is classed as cell-based, Mesocricetus auratus. The following applies: hamster, BHK-21 cells.
A short description of data set [11]: Cytotoxicity against human Huh7.5 cells in presence of ATP by Celltiter-Glo assay. The data set is classed as cell-based.
Data set [12] can be described thus: Selectivity index, ratio of CC50 for BHK21 cells to EC50 for Chikungunya virus. The data set is classed as toxicity. The following applies: hamster, BHK-21 cells; read-out: Ratio CC50/EC50.
Data set [13] is described as follows: Selectivity index, ratio of CC50 for human Huh7.5 cells to EC50 for Chikungunya virus. The data set is classed as toxicity. As to conditions: read-out: Ratio CC50/EC50.
The test system of data set [14] is Chikungunya virus. The experiment in a line: Antiviral activity against Chikungunya virus 899 infected in African green monkey Vero-A cells assessed as inhibition of viral-induced cytopathic effect measured on day 7 post infection by MTS/PMS assay. The data set is classed as functional, organism-based. The following applies: Chikungunya virus, 899, 168 h. For orientation: Damage to the host cells serves as the signal in cytopathic effect assays.

Data set [15] relates to Chikungunya virus. Briefly: Antiviral activity against Chikungunya virus infected in African green monkey Vero cells. It is filed as functional, organism-based.
Data set [16] in a line: Selectivity index, ratio of CC50 for African green monkey Vero cells to EC50 for Chikungunya virus. The data set is classed as toxicity. The following applies: read-out: Ratio CC50/EC50.
The test system of data set [17] is Chikungunya virus. The experiment in a line: Antiviral activity against Chikungunya virus 899 infected in African green monkey Vero cells assessed as inhibition of virus-induced cytopathogenic effect measured on day 5 post infection by MTS/PMS based microscopic analysis. It is filed as functional, organism-based. As to conditions: Chikungunya virus, 899, Vero, 120 h.

The subject of a further data set is Vero. Briefly: Cytotoxicity against African green monkey Vero cells assessed as reduction in cell viability measured on day 5 post dose by MTS/PMS based microscopic analysis. As to conditions: chlorocebus sabaeus.
A short description of data set [18]: Cytotoxicity against African green monkey Vero A cells assessed as reduction in cell viability measured on day 5 post infection by MTS/PMS based microscopic analysis. The following applies: chlorocebus sabaeus.
Data set [19] concerns Chikungunya virus. Briefly: Antiviral activity against Chikungunya virus 899 infected in African green monkey Vero A cells assessed as inhibition of virus-induced cytopathogenic effect measured on day 5 post infection by MTS/PMS based microscopic analysis. The following applies: Chikungunya virus, 899, Vero, 120 h. It is filed as functional, organism-based.
Data set [20] concerns Chikungunya virus. Briefly: Antiviral activity against Chikungunya virus 899 infected in African green monkey Vero A cells by real-time qRT-PCR analysis. The data set is classed as functional, organism-based. The following applies: Chikungunya virus, 899, Vero.
In data set [21] the test system is Chikungunya virus. Briefly: Antiviral activity against Chikungunya virus 899 infected in African green monkey Vero A cells assessed as reduction in viral infectious progeny by end-point titration assay. It is filed as functional, organism-based. The following applies: Chikungunya virus, 899, Vero.

Turning to `CCOC(=O)c1c(CS(=O)(=O)c2ccccc2)n(C)c2cc(Br)c(O)c(CN(C)C)c12`, the IC50 (usually the midpoint of a concentration-inhibition curve) with Chikungunya virus [1] was > 56.4 µM.
As to `CCCCOC(=O)c1ccccc1C(=O)O`, the concentration for half-maximal inhibition (IC50) in the data set with Chikungunya virus [2] was 2490 nM; in the data set with Chikungunya virus [3], 28.6 µM. The 50% cytotoxic concentration (CC50) (in general, the concentration giving 50% cytotoxicity) at 96 h in data set [4] stood at 340 µM. For the same compound, the selectivity ratio is 136 in data set [5] and 11.9 in data set [6].
`CCOC(=O)c1c(C[S+]([O-])c2ccccc2)n(C)c2cc(Br)c(O)c(CN(C)C)c12` (stereo unspecified) yielded an IC50 in the data set on Chikungunya virus [1] of 54.5 µM.
Consider `CCOc1ccc(/C=N/NC(=O)C2CC2c2ccc(C(C)(C)C)cc2)cc1OCC` (stereo unspecified), for which the selectivity ratio in [7] came to 14.
On to `CC[C@H](C)[C@H]1O[C@]2(CC[C@@H]1C)C[C@@H]1C[C@@H](C/C=C(\C)[C@@H](O[C@H]3C[C@H](OC)[C@@H](O[C@H]4C[C@H](OC)[C@@H](O)[C@H](C)O4)[C@H](C)O3)[C@@H](C)/C=C/C=C3\CO[C@]4(O)[C@H](O)C(C)=C[C@@H](C(=O)O1)[C@]34O)O2`, for which the values for the EC50 in the data set with Chikungunya virus [8] and with Chikungunya virus [9] were 600 nM and 1900 nM, respectively. Also, the CC50 turned out to be 37.9 µM in [10] and 8 µM in data set [11]. Besides, the results for the selectivity ratio in data set [12] and in data set [13] were 62.4 and 4.1, respectively.
For the compound `NC(=O)c1nccnc1O`, in the data set on Chikungunya virus [14], the EC50 (usually the concentration at which the effect is half-maximal) came out at 7 µM.
In the data set on Chikungunya virus [15], `C/C(=C\C(=O)O[C@@H]1[C@H](C)C[C@H]2O[C@]1(O)[C@@H](O)[C@H]1CC[C@H](O1)C(C)(C)/C=C/[C@H](C)C2=O)C(C)O` (stereo partly specified) gave a concentration giving a half-maximal response (EC50) of 34 µM. Also, the selectivity ratio in data set [16] was found to be 3.2.
Take `CN(C)CC1CCn2c(cc3ccc(C4=C(c5cn(C)c6ccccc56)C(=O)NC4=O)cc32)C1` (stereo unspecified): in the data set with Chikungunya virus [17], the EC50 is > 6 µM. For the same compound, the CC50 in the data set on Vero stood at 35 µM.
Turning to `CC(C)CCCC(C)CCCC(C)CCCC(C)CCO` (stereo unspecified), the IC50 in the data set on Chikungunya virus [2] was found to be 1660 nM; in the data set with Chikungunya virus [3], 112 µM. For the same compound, the CC50 at 96 h in [4] came out at 259 µM. Also, the selectivity ratio in data set [5] is 156; in data set [6] it was 2.11.
In the data set on Chikungunya virus [15], `CC(=O)C(C)/C(C)=C/C(=O)O[C@@H]1[C@H](C)C[C@H]2O[C@]1(O)[C@@H](O)[C@H]1CC[C@H](O1)C(C)(C)/C=C/[C@H](C)C2=O` (stereo partly specified) yielded an EC50 of 7 µM. Also, in data set [16], the selectivity ratio worked out at 8.8.
For `CCOc1ccc(/C=N/NC(=O)/C=C/Cc2ccc(C(C)(C)C)cc2)cc1OCC`, the selectivity ratio in data set [7] stood at 32.
Turning to `CCCCCCCC(=O)O[C@H]1/C(=C/C(=O)OC)C[C@H]2C[C@H](CC(=O)OC)OC(=O)CCOc3ccccc3C(=O)OCC(C)(C)[C@]1(O)O2`, the cytotoxic concentration (CC50) at 5 days in data set [18] is > 50 µM. The EC50 turned out to be 8 µM in the data set on Chikungunya virus [19], 4.6 µM in the data set with Chikungunya virus [20] and 4.5 µM with Chikungunya virus [21].
As for `CCCCCCCCCCCCCCCCCOC(=O)c1ccccc1C(=O)O`, it took 76.5 µM to reach half-maximal inhibition in the data set on Chikungunya virus [3] (IC50). In addition, the selectivity ratio in [6] came out at 4.66.
On to `CCCCCCCC(=O)O[C@H]1/C(=C/C(=O)OC)C[C@H]2C[C@H](COC)OC(=O)CCOc3ccccc3C(=O)OCC(C)(C)[C@]1(O)O2`, for which the CC50 at 5 days in data set [18] is > 50 µM. The results for the EC50 in the data set with Chikungunya virus [19], with Chikungunya virus [20] and in the data set with Chikungunya virus [21] were 7.5 µM, 6 µM and 4.1 µM, respectively.
The matching figures for `CCCCCCCC(=O)O[C@H]1/C(=C/C(=O)OC)C[C@H]2C[C@H](CC(=O)OC)OC(=O)CCOc3ccc(-c4c(OC)cccc4OC)cc3C(=O)OCC(C)(C)[C@]1(O)O2`: > 50 µM, 4 µM, 2.1 µM and 2 µM.
